Data published in the CheMixHub viscosity set.

Experiment: xn = mol fraction of the nth substance listed

C1CCCCC1 + CCC(C)O
viscosity [mPa·s], 101.33 kPa
Conditions	298.15 K	303.15 K	313.15 K
x1 = 0.0998	2.334	–	1.442
x1 = 0.2045	1.841	–	1.19
x1 = 0.3002	1.524	–	1.023
x1 = 0.4007	1.285	–	0.8968
x1 = 0.4995	1.116	–	0.8098
x1 = 0.6	1.001	–	0.7497
x1 = 0.7028	0.9323	–	0.7106
x1 = 0.8005	0.8895	–	0.6896
x1 = 0.9036	0.872	–	0.6801
x2 = 0.1002	–	0.8606	–
x2 = 0.1978	–	0.9196	–
x2 = 0.3031	–	1.004	–
x2 = 0.4019	–	1.107	–
x2 = 0.4961	–	1.244	–
x2 = 0.5974	–	1.435	–
x2 = 0.695	–	1.68	–
x2 = 0.799	–	1.996	–
x2 = 0.8924	–	2.321	–

CCC(C)=O + CCC(C)O
viscosity [mPa·s], 101.3 kPa
Conditions	x2 = 0.1018	x2 = 0.1991	x2 = 0.2984	x2 = 0.397	x2 = 0.4966	x2 = 0.5968	x2 = 0.6985	x2 = 0.8007	x2 = 0.9003
298.15 K	0.423	0.461	0.511	0.578	–	0.804	1.005	1.332	1.896
308.15 K	0.38	0.415	0.452	0.505	0.576	0.677	0.824	–	1.426
318.15 K	0.344	0.369	0.402	0.445	0.501	0.578	0.686	0.849	1.099

COC(C)=O + CCC(C)O
298.15 K, 101.33 kPa
Conditions	viscosity [mPa·s]
x1 = 0.1056	1.854
x1 = 0.2017	1.275
x1 = 0.3076	0.921
x1 = 0.3884	0.771
x1 = 0.4935	0.64
x1 = 0.5697	0.559
x1 = 0.6653	0.485
x1 = 0.7801	0.429
x1 = 0.876	0.411

COc1ccccc1N + CCC(C)O
viscosity [mPa·s], 101 kPa
Conditions	x1 = 0.1106	x1 = 0.1844	x1 = 0.2647	x1 = 0.3523	x1 = 0.4825	x1 = 0.5919	x1 = 0.6713	x1 = 0.7566	x1 = 0.8969
303.15 K	2.843	3.007	3.188	3.385	3.681	3.931	4.114	4.314	4.656
308.15 K	2.398	2.561	2.739	2.935	3.229	3.483	3.671	3.878	4.233
313.15 K	2.083	2.242	2.413	2.602	2.891	3.143	3.331	3.541	3.906
318.15 K	1.788	1.942	2.107	2.29	2.572	2.825	3.017	3.231	3.6

COc1ccccc1N + CCCC(=O)O
viscosity [mPa·s], 100 kPa
Conditions	x1 = 0.1187	x1 = 0.1967	x1 = 0.2806	x1 = 0.3708	x1 = 0.5026	x1 = 0.6111	x1 = 0.6888	x1 = 0.7711	x1 = 0.9041
303.15 K	1.813	2.094	2.394	2.716	3.184	3.567	3.839	4.126	4.589
308.15 K	1.646	1.911	2.194	2.497	2.937	3.298	3.554	3.824	4.259
313.15 K	1.478	1.726	1.992	2.276	2.689	3.027	3.266	3.519	3.926
318.15 K	1.313	1.547	1.796	2.063	2.451	2.768	2.992	3.229	3.611

COc1ccccc1N + CCCC(C)=O
viscosity [mPa·s], 100 kPa
Conditions	x1 = 0.0932	x1 = 0.1824	x1 = 0.2643	x1 = 0.3512	x1 = 0.4494	x1 = 0.5391	x1 = 0.654	x1 = 0.7787	x1 = 0.8784
303.15 K	0.887	1.312	1.695	2.099	2.548	2.952	3.46	3.999	4.421
308.15 K	0.858	1.257	1.616	1.99	2.406	2.776	3.245	3.741	4.128
313.15 K	0.829	1.202	1.537	1.879	2.262	2.598	3.028	3.481	3.832

CCC(C)=O + CCCCCC
298 K, 101.33 kPa
Conditions	viscosity [mPa·s]
x1 = 0.055	0.3018
x1 = 0.2337	0.3032
x1 = 0.2985	0.3054
x1 = 0.4168	0.3122
x1 = 0.5063	0.3211
x1 = 0.6043	0.3277
x1 = 0.6943	0.3371
x1 = 0.8004	0.3496
x1 = 0.9053	0.3647
